In patent US6967205B1, “Compounds with antibacterial and antiparasitic properties” (New Pharma Research Sweden AB, priority 1999, dated 2005):
In brackets after ≈: the same amount, converted by molar mass.

Experiments:
Experiment in all cases: M.I.C. by broth dilution method (NCCLS 1988), gram-positive bacteria
Assay type in all cases: cell-based
Streptococcus faecium = conditions: Enterococcus faecium, in vitro broth dilution, read-out: M.I.C. values Streptoc. faecium
Method: (§1) The antibacterial activity of the present compounds was investigated by in vitro evaluation of their M.I.C. (Minimum Inhibitory Concentration) values. The evaluation was conducted in complete accordance with the “Broth dilution method”, as outlined by the U.S. National Committee for Clinical Laboratory Standards “NCCLS 1988”.
(§2) Solutions of the present compounds were prepared by dissolving 0.01 g of a test compound in either 10% KOH (aq) or a 10% KOH/DMF mixture, after which sterile, distilled H2O was added up to a total volume of 10 ml, thereby yielding a test compound concentration of 1 000 μg/ml.
(§3) In this evaluation, the antibacterial activity of the present compounds and enrofloxacin as reference compound was tested against seven strains of gram-positive bacteria, namely Bacillus subtilus (ATCC 6633), Bacillus cereus, Streptococcus faecium, Micrococcus Luteus (ATCC 9341), Staph. aureus (ATCC 29737), Staph. epidermidis (ATCC 12228) and Staphylococcus (ATCC 6538).

[1] = system: Micrococcus Luteus (ATCC 9341); conditions: ATCC9341, in vitro broth dilution, read-out: M.I.C. values Microc. Luteus
Method: as §1, §2, §3

[2] = system: Bacillus subtilus (ATCC 6633); conditions: ATCC6633, in vitro broth dilution
Method: as §1, §2, §3

[3] = system: Staph. epidermidis (ATCC 12228); conditions: Staphylococcus epidermidis, ATCC12228, in vitro broth dilution
Method: as §1, §2, §3

[4] = system: Staphylococcus (ATCC 6538); conditions: ATCC6538, in vitro broth dilution, read-out: M.I.C. values Staph. (ATCC 6538)
Method: as §1, §2, §3

Bacillus cereus = conditions: in vitro broth dilution
Method: as §1, §2, §3

[5] = system: Staph. aureus (ATCC 29737); conditions: Staphylococcus aureus, ATCC29737, in vitro broth dilution
Method: as §1, §2, §3

| Structure (SMILES) | MIC (Streptococcus faecium) | MIC [1] | MIC [2] | MIC [3] | MIC [4] | MIC (Bacillus cereus) | MIC [5] |
| --- | --- | --- | --- | --- | --- | --- | --- |
| Cc1ccc(S(=O)(=O)N2CCN(c3cc4c(cc3F)c(=O)c(C(=O)O)cn4C3CC3)CC2)cc1 [JA 2, 1-cyclopropyl-6-fluoro-7-{4-[(4-methylphenyl)sulfonyl]-1-piperazinyl}-4-oxo-1,4-dihydro-3-quinolinecarboxylic acid] | 0.5 µg/mL (≈ 1.03 µM) | 0.5 µg/mL (≈ 1.03 µM) | 0.12 µg/mL (≈ 0.247 µM) | 0.06 µg/mL (≈ 0.124 µM) | 0.03 µg/mL (≈ 0.0618 µM) | 0.06 µg/mL (≈ 0.124 µM) | 0.12 µg/mL (≈ 0.247 µM) |
| O=C(O)c1cn(C2CC2)c2cc(N3CCN(S(=O)(=O)Cc4ccccc4)CC3)c(F)cc2c1=O [JA 9, 7-[4-(benzylsulfonyl)-1-piperazinyl]-1-cyclopropyl-6-fluoro-4-oxo-1,4-dihydro-3-quinolinecarboxylic acid] | 1 µg/mL (≈ 2.06 µM) | 1 µg/mL (≈ 2.06 µM) | 0.25 µg/mL (≈ 0.515 µM) | 0.12 µg/mL (≈ 0.247 µM) | 0.06 µg/mL (≈ 0.124 µM) | 0.25 µg/mL (≈ 0.515 µM) | ≥ 0.12 µg/mL |
| CS(=O)(=O)N1CCN(c2cc3c(cc2F)c(=O)c(C(=O)O)cn3C2CC2)CC1 [JA 10, 1-cyclopropyl-6-fluoro-7-[4-(methylsulfonyl)-1-piperazinyl]-4-oxo-1,4-dihydro-3-quinolinecarboxylic acid] | 1 µg/mL (≈ 2.44 µM) | 2 µg/mL (≈ 4.88 µM) | 0.5 µg/mL (≈ 1.22 µM) | 0.25 µg/mL (≈ 0.611 µM) | 0.25 µg/mL (≈ 0.611 µM) | 0.12 µg/mL (≈ 0.293 µM) | 0.25 µg/mL (≈ 0.611 µM) |
| CCn1cc(C(=O)O)c(=O)c2cc(F)c(N3CCN(S(=O)(=O)c4ccc(OC)cc4)CC3)cc21 [JA 21, 1-ethyl-6-fluoro-7-{4-[(4-methoxyphenyl)sulfonyl]-1-piperazinyl}-4-oxo-1,4-dihydro-3-quinolinecarboxylic acid] | 0.5 µg/mL (≈ 1.02 µM) | 2 µg/mL (≈ 4.09 µM) | 0.25 µg/mL (≈ 0.511 µM) | 0.06 µg/mL (≈ 0.123 µM) | 0.06 µg/mL (≈ 0.123 µM) | 0.01 µg/mL (≈ 0.0204 µM) | 0.25 µg/mL (≈ 0.511 µM) |
| O=C(O)c1cn(C2CC2)c2cc(N3CCN(c4ccc(Br)cn4)CC3)c(F)cc2c1=O [JA 40, 7-[4-(5-bromo-2-pyridinyl)-1-piperazinyl]-1-cyclopropyl-6-fluoro-4-oxo-1,4-dihydro-3-quinolinecarboxylic acid] | 1 µg/mL (≈ 2.05 µM) | 2 µg/mL (≈ 4.1 µM) | 0.12 µg/mL (≈ 0.246 µM) | 0.12 µg/mL (≈ 0.246 µM) | 0.06 µg/mL (≈ 0.123 µM) | 0.06 µg/mL (≈ 0.123 µM) | 0.25 µg/mL (≈ 0.513 µM) |
| O=C(O)c1cn(C2CC2)c2cc(N3CCN(c4cccc(Cl)c4S)CC3)c(F)cc2c1=O [JA 41, 7-[4-(3-chloro-2-sulfanylphenyl)-1-piperazinyl]-1-cyclopropyl-6-fluoro-4-oxo-1,4-dihydro-3-quinolinecarboxylic acid] | 1 µg/mL (≈ 2.11 µM) | 2 µg/mL (≈ 4.22 µM) | 0.5 µg/mL (≈ 1.05 µM) | 0.25 µg/mL (≈ 0.527 µM) | 0.25 µg/mL (≈ 0.527 µM) | 0.25 µg/mL (≈ 0.527 µM) | 0.25 µg/mL (≈ 0.527 µM) |
| O=C(O)c1cn(C2CC2)c2cc(N3CCN(c4cnccn4)CC3)c(F)cc2c1=O [JA 46, 1-cyclopropyl-6-fluoro-4-oxo-7-[4-(2-pyrazinyl)-1-piperazinyl]-1,4-dihydro-3-quinolinecarboxylic acid] | 0.5 µg/mL (≈ 1.22 µM) | 1 µg/mL (≈ 2.44 µM) | 0.12 µg/mL (≈ 0.293 µM) | 0.12 µg/mL (≈ 0.293 µM) | 0.12 µg/mL (≈ 0.293 µM) | 0.06 µg/mL (≈ 0.147 µM) | 0.12 µg/mL (≈ 0.293 µM) |
| O=C(O)c1cn(C2CC2)c2cc(NC3CCC(C(=O)O)CC3)c(F)cc2c1=O (centres unmarked) [JA 69, 7-[(4-carboxycyclohexyl)amino]-1-cyclopropyl-6-fluoro-4-oxo-1,4-dihydro-3-quinolinecarboxylic acid] | 2 µg/mL (≈ 5.15 µM) | 2 µg/mL (≈ 5.15 µM) | 0.12 µg/mL (≈ 0.309 µM) | 0.12 µg/mL (≈ 0.309 µM) | 0.12 µg/mL (≈ 0.309 µM) | 0.06 µg/mL (≈ 0.154 µM) | 0.12 µg/mL (≈ 0.309 µM) |
| O=C(O)c1ccc(CNc2cc3c(cc2F)c(=O)c(C(=O)O)cn3C2CC2)cc1 [JA 70, 7-[(4-carboxybenzyl)amino]-1-cyclopropyl-6-fluoro-4-oxo-1,4-dihydro-3-quinolinecarboxylic acid] | 2 µg/mL (≈ 5.05 µM) | 1 µg/mL (≈ 2.52 µM) | 0.25 µg/mL (≈ 0.631 µM) | 0.25 µg/mL (≈ 0.631 µM) | 0.12 µg/mL (≈ 0.303 µM) | 0.12 µg/mL (≈ 0.303 µM) | 0.12 µg/mL (≈ 0.303 µM) |
| O=C(O)c1cn(C2CC2)c2cc(NCCN3CCCCC3)c(F)cc2c1=O [JA 76, 1-cyclopropyl-6-fluoro-4-oxo-7-{[2-(1-piperidinyl)ethyl]-amino}-1,4-dihydro-3-quinolinecarboxylic acid] | 1 µg/mL (≈ 2.68 µM) | 2 µg/mL (≈ 5.36 µM) | 0.12 µg/mL (≈ 0.321 µM) | 0.12 µg/mL (≈ 0.321 µM) | 0.06 µg/mL (≈ 0.161 µM) | 0.12 µg/mL (≈ 0.321 µM) | 0.12 µg/mL (≈ 0.321 µM) |
| CN(CCCN)CCCNc1cc2c(cc1F)c(=O)c(C(=O)O)cn2C1CC1 [JA 102, 7-({3-[(3-aminopropyl)(methyl)amino]propyl}amino)-1-cyclopropyl-6-fluoro-4-oxo-1,4-dihydro-3-quinolinecarboxylic acid] | 1 µg/mL (≈ 2.56 µM) | 2 µg/mL (≈ 5.12 µM) | 0.12 µg/mL (≈ 0.307 µM) | 0.12 µg/mL (≈ 0.307 µM) | 0.12 µg/mL (≈ 0.307 µM) | 0.06 µg/mL (≈ 0.154 µM) | 0.06 µg/mL (≈ 0.154 µM) |
| O=C(O)c1cn(C2CC2)c2cc(N(Cc3ccco3)C(=O)c3cccs3)c(F)cc2c1=O [JA 124, 1-cyclopropyl-6-fluoro-7[(2-furylmethyl)(2-thienylcarbonyl)amino]-4-oxo-1,4-dihydro-3-quinolinecarboxylic acid] | 1 µg/mL (≈ 2.21 µM) | 2 µg/mL (≈ 4.42 µM) | 0.12 µg/mL (≈ 0.265 µM) | 0.12 µg/mL (≈ 0.265 µM) | 0.12 µg/mL (≈ 0.265 µM) | 0.12 µg/mL (≈ 0.265 µM) | 0.12 µg/mL (≈ 0.265 µM) |
| O=C(O)c1cn(C2CC2)c2cc(N(CCN3CCCCC3)C(=O)c3cccs3)c(F)cc2c1=O [JA 128, 1-cyclopropyl-6-fluoro-4-oxo-7-[[2-(1-piperidinyl)ethyl]-(2-thienylcarbonyl)amino]-1,4-dihydro-3-quinolinecarboxylic acid] | 1 µg/mL (≈ 2.07 µM) | 2 µg/mL (≈ 4.14 µM) | 0.12 µg/mL (≈ 0.248 µM) | 0.06 µg/mL (≈ 0.124 µM) | 0.12 µg/mL (≈ 0.248 µM) | 0.06 µg/mL (≈ 0.124 µM) | 0.12 µg/mL (≈ 0.248 µM) |

Now from value to compound:

| MIC (Streptococcus faecium) | MIC [1] | MIC [2] | MIC [3] | MIC [4] | MIC (Bacillus cereus) | MIC [5] | Structure (SMILES) |
| --- | --- | --- | --- | --- | --- | --- | --- |
| 0.5 µg/mL (≈ 0.968 µM) | 2 µg/mL (≈ 3.87 µM) | 0.12 µg/mL (≈ 0.232 µM) | 0.12 µg/mL (≈ 0.232 µM) | 0.12 µg/mL (≈ 0.232 µM) | 0.06 µg/mL (≈ 0.116 µM) | 0.12 µg/mL (≈ 0.232 µM) | COc1ccc(S(=O)(=O)N(CC2CCCO2)c2cc3c(cc2F)c(=O)c(C(=O)O)cn3C2CC2)cc1 (centres unmarked) [JA 135, 1-cyclopropyl-6-fluoro-7-[[(4-methoxyphenyl)sulfonyl](tetrahydro-2-furanylmethyl)amino]-4-oxo-1,4-dihydro-3-quinolinecarboxylic acid] |
| 0.5 µg/mL (≈ 0.932 µM) | 2 µg/mL (≈ 3.73 µM) | 0.12 µg/mL (≈ 0.224 µM) | 0.12 µg/mL (≈ 0.224 µM) | 0.12 µg/mL (≈ 0.224 µM) | 0.06 µg/mL (≈ 0.112 µM) | 0.12 µg/mL (≈ 0.224 µM) | O=C(O)c1cn(C2CC2)c2cc(N(CC3CCCO3)S(=O)(=O)c3ccc4ccccc4c3)c(F)cc2c1=O (centres unmarked) [JA 136, 1-cyclopropyl-6-fluoro-7-[(2-naphthylsulfonyl)(tetrahydro-2-furanylmethyl)amino]-4-oxo-1,4-dihydro-3-quinolinecarboxylic acid] |
| 1 µg/mL (≈ 1.94 µM) | 2 µg/mL (≈ 3.89 µM) | 0.12 µg/mL (≈ 0.233 µM) | 0.25 µg/mL (≈ 0.486 µM) | 0.12 µg/mL (≈ 0.233 µM) | 0.25 µg/mL (≈ 0.486 µM) | 0.5 µg/mL (≈ 0.972 µM) | O=C(O)c1cn(C2CC2)c2cc(N(CC3CCCO3)S(=O)(=O)CCc3ccccc3)c(F)cc2c1=O (centres unmarked) [JA 137, 1-cyclopropyl-6-fluoro-4-oxo-7-[(phenethylsulfonyl)(tetrahydro-2-furanylmethyl)amino]-1,4-dihydro-3-quinolinecarboxylic acid] |
| 1 µg/mL (≈ 2.09 µM) | 2 µg/mL (≈ 4.18 µM) | 0.12 µg/mL (≈ 0.251 µM) | 0.12 µg/mL (≈ 0.251 µM) | 0.12 µg/mL (≈ 0.251 µM) | 0.06 µg/mL (≈ 0.125 µM) | 0.25 µg/mL (≈ 0.523 µM) | O=C(O)c1cn(C2CC2)c2cc(N(CC3CCCO3)S(=O)(=O)C(F)(F)F)c(F)cc2c1=O (centres unmarked) [JA 138, 1-cyclopropyl-6-fluoro-4-oxo-7-{(tetrahydro-2-furanylmethyl)[(trifluoromethyl)sulfonyl]amino}-1,4-dihydro-3-quinolinecarboxylic acid] |
| 0.5 µg/mL (≈ 1.1 µM) | 1 µg/mL (≈ 2.19 µM) | 0.06 µg/mL (≈ 0.131 µM) | 0.12 µg/mL (≈ 0.263 µM) | 0.06 µg/mL (≈ 0.131 µM) | 0.06 µg/mL (≈ 0.131 µM) | 0.12 µg/mL (≈ 0.263 µM) | O=C(O)c1cn(C2CC2)c2cc(N(CC3CCCO3)C(=O)c3cccs3)c(F)cc2c1=O (centres unmarked) [JA 140, 1-cyclopropyl-6-fluoro-4-oxo-7-[(tetrahydro-2-furanylmethyl)(2-thienylcarbonyl)amino]-1,4-dihydro-3-quinolinecarboxylic acid] |
| 1 µg/mL (≈ 2.18 µM) | 2 µg/mL (≈ 4.36 µM) | 0.12 µg/mL (≈ 0.262 µM) | 0.12 µg/mL (≈ 0.262 µM) | 0.12 µg/mL (≈ 0.262 µM) | 0.12 µg/mL (≈ 0.262 µM) | 0.25 µg/mL (≈ 0.545 µM) | O=C(O)c1cn(C2CC2)c2cc(N(CC3CCCO3)c3cncc(Cl)n3)c(F)cc2c1=O (centres unmarked) [JA 141, 7-[(6-chloro-2-pyrazinyl)(tetrahydro-2-furanylmethyl)amino]-1-cyclopropyl-6-fluoro-4-oxo-1,4-dihydro-3-quinolinecarboxylic acid] |
| 1 µg/mL (≈ 2.18 µM) | > 2 µg/mL | 0.12 µg/mL (≈ 0.262 µM) | 0.12 µg/mL (≈ 0.262 µM) | 0.12 µg/mL (≈ 0.262 µM) | 0.12 µg/mL (≈ 0.262 µM) | 0.25 µg/mL (≈ 0.546 µM) | O=C(O)c1cn(C2CC2)c2cc(N(CC3CCCO3)c3cccc(Cl)n3)c(F)cc2c1=O (centres unmarked) [JA 143, 7-[(6-chloro-2-pyridinyl)(tetrahydro-2-furanylmethyl)amino]-1-cyclopropyl-6-fluoro-4-oxo-1,4-dihydro-3-quinolinecarboxylic acid] |
